We go through twelve compounds from patent US20230234942A1, “COMPOUNDS FOR TREATING HUNTINGTON'S DISEASE” (PTC Therapeutics, Inc., priority 2020, published 2023).

pIC50: −log10 of the molar value.

This test relates to Endogenous Huntingtin Protein. In words: Endogenous Huntingtin Protein Assay (ELISA-based MSD electrochemiluminescence). The following applies: Table 2; MSD plates coated with MW1 (expanded polyglutamine) or MAB2166 capture antibody; "inactive" = result above the detection limit of the assay. Format: cell-based. A digest of the protocol:
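MSD electrochemiluminescence sandwich ELISA: capture with MW1 (expanded polyQ) or MAB2166 at 1 µg/mL, samples incubated overnight at 4 °C. Detection by rabbit mAb #56565 then SULFO-TAG anti-rabbit antibody, each 0.25 µg/mL for 1 h at room temperature, read in buffer T on SI 6000 imager.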
(In an ELISA, binding on a coated surface is turned into a signal by an enzyme label.)
Broadly, the pIC50 is −log10 of the IC50, conventionally taken in molar units. As for `CC(C)CC1CN(c2ncc(-c3ccc(-c4cn[nH]c4)cc3O)nn2)CCN1` (stereo not drawn) [Cpd 46, 2-{3-[3-(2-methylpropyl)piperazin-1-yl]-1,2,4-triazin-6-yl}-5-(1H-pyrazol-4-yl)phenol], the pIC50 was 6.82.

`Oc1cc(-c2cn[nH]c2)ccc1-c1cnc(N2CCN[C@H](C3CC3)C2)nn1` [Cpd 136, 2-{3-[(3R)-3-cyclopropylpiperazin-1-yl]-1,2,4-triazin-6-yl}-5-(1H-pyrazol-4-yl)phenol]: the pIC50 is 7.30.

As to `C[C@@H]1CN(c2ncc(-c3ccc(-c4ccn(C)n4)cc3O)nn2)C[C@H](C2CCC2)N1` [Cpd 240, 2-{3-[(3S,5R)-3-cyclobutyl-5-methylpiperazin-1-yl]-1,2,4-triazin-6-yl}-5-(1-methyl-1H-pyrazol-3-yl)phenol], the pIC50 is 6.77.

For `COc1cc(-c2ccc(-c3cnc(N4C[C@@H](C)N[C@@H](C5CC5)C4)nn3)c(O)c2)ccn1` [Cpd 256, 2-{3-[(3S,5R)-3-cyclopropyl-5-methylpiperazin-1-yl]-1,2,4-triazin-6-yl}-5-(2-methoxypyridin-4-yl)phenol], the pIC50 was 7.91.

Turning to `Cn1nc2ccc(-c3ccc(-c4cnc(N5CCN[C@@H](C6CC6)C5)nn4)c(O)c3)nc2n1` [Cpd 202, 2-{3-[(3S)-3-cyclopropylpiperazin-1-yl]-1,2,4-triazin-6-yl}-5-(2-methyl-2H-[1,2,3]triazolo[4,5-b]pyridin-5-yl)phenol], the pIC50 is 8.43.

In turn, `C[C@@H]1CN(c2ncc(-c3ccc(-n4nccn4)cc3O)nn2)C[C@H](C)N1` [Cpd 54, 2-{3-[(3R,5S)-3,5-dimethylpiperazin-1-yl]-1,2,4-triazin-6-yl}-5-(2H-1,2,3-triazol-2-yl)phenol] had a pIC50 of 6.36.

Compound `Cc1nc2n(n1)CCN(c1ccc(-c3cnc(N4CCN[C@@H](C(C)C)C4)nn3)c(O)c1)C2` [Cpd 274, 5-(2-methyl-5,6-dihydro[1,2,4]triazolo[1,5-a]pyrazin-7(8H)-yl)-2-{3-[(3S)-3-(propan-2-yl)piperazin-1-yl]-1,2,4-triazin-6-yl}phenol] had a pIC50 of 6.54.

Regarding `[2H]C([2H])([2H])Oc1cc(-c2ccc(-c3cnc(N4CCN[C@@H](C(C)C)C4)nn3)c(O)c2)ncn1` [Cpd 10, 5-{6-[(^2H3)methyloxy]pyrimidin-4-yl}-2-{3-[(3S)-3-(propan-2-yl)piperazin-1-yl]-1,2,4-triazin-6-yl}phenol], the pIC50 was 8.02.

`Cc1cn2cc(-c3ccc(-c4cnc(N5C[C@@H](C)N[C@@H](C)C5)nn4)c(O)c3)cc(C#N)c2n1` [Cpd 87, 6-(4-{3-[(3R,5S)-3,5-dimethylpiperazin-1-yl]-1,2,4-triazin-6-yl}-3-hydroxyphenyl)-2-methylimidazo[1,2-a]pyridine-8-carbonitrile] gave a pIC50 of 8.19.

Consider `CC(C)[C@H]1CN(c2ncc(-c3ccc(-n4nccn4)cc3O)nn2)CCN1` [Cpd 154, 2-{3-[(3S)-3-(propan-2-yl)piperazin-1-yl]-1,2,4-triazin-6-yl}-5-(2H-1,2,3-triazol-2-yl)phenol], for which the pIC50 was 7.73.

Turning to `Cn1cc2cc(-c3ccc(-c4cnc(N5CCN6CCC[C@@H]6C5)nn4)c(O)c3)cc(F)c2n1` [Cpd 105, 5-(7-fluoro-2-methyl-2H-indazol-5-yl)-2-{3-[(8aR)-hexahydropyrrolo[1,2-a]pyrazin-2(1H)-yl]-1,2,4-triazin-6-yl}phenol], the pIC50 is 7.82.

`C[C@@H]1CN(c2ncc(-c3ccc(-c4ncns4)cc3O)nn2)C[C@H](C2CC2)N1` (single isomer, unassigned) [Cpd 269, 2-{3-[(3S,5R)-3-cyclopropyl-5-methylpiperazin-1-yl]-1,2,4-triazin-6-yl}-5-(1,2,4-thiadiazol-5-yl)phenol or 2-{3-[(3R,5S)-3-cyclopropyl-5-methylpiperazin-1-yl]-1,2,4-triazin-6-yl}-5-(1,2,4-thiadiazol-5-yl)phenol]: the pIC50 is 7.27.
